Source: US7998965B2, “Glutamate aggrecanase inhibitors” (Wyeth LLC, priority 2005, dated 2011)

Molecular target: T1, purified recombinant human Aggrecanase-1 (rAgg1) (Homo sapiens, UniProt O75173)
T1 sequence (O75173 213-837): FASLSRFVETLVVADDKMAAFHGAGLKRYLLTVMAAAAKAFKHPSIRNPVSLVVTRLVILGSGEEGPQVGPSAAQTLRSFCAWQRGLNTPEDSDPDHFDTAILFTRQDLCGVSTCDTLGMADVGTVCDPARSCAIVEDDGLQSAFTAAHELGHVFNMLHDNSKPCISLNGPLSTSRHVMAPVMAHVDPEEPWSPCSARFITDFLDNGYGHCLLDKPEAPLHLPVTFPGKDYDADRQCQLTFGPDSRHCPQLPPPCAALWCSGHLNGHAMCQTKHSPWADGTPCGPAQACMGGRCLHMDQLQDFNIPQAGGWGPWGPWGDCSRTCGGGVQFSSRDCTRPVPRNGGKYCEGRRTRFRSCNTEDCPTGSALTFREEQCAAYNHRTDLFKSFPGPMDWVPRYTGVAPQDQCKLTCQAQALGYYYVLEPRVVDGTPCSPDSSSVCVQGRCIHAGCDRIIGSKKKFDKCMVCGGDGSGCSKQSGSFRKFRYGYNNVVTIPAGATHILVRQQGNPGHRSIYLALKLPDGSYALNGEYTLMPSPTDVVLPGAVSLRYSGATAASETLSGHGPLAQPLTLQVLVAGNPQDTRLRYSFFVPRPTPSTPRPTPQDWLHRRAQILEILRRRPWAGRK
Assay: In vitro fluorescence screen for Aggrecanase-1 inhibitors
Assay type: biochemical
Details: Table 1; for IC50: read-out: Agg1 IC50

SMILES | IC50 | also measured
O=C(O)CC[C@H](NC(=O)c1ccc(-c2ccccc2)cc1)C(=O)NCc1cccc(F)c1 [Example 8XX, N^2-(1,1′-biphenyl-4-ylcarbonyl)-N^1-(3-fluorobenzyl)-L-α-glutamine] | 300 nM | –
O=C(O)CC[C@H](NC(=O)c1ccc(-c2ccccc2)cc1)C(=O)NCc1ccccc1F [Example 8ZZ, N^2-(1,1′-biphenyl-4-ylcarbonyl)-N^1-(2-fluorobenzyl)-L-α-glutamine] | 210 nM | –
O=Cc1ccc(-c2ccc(CCNC(=O)[C@H](CCC(=O)O)NC(=O)c3ccc(-c4ccccc4)cc3)cc2)cc1 [Example 9, N^2-(biphenyl-4-ylcarbonyl)-N^1-[2-(4′-formylbiphenyl-4-yl)ethyl]-L-α-glutamine] | 200 nM | –
COc1ccc(-c2ccc(CCNC(=O)[C@H](CCC(=O)O)NC(=O)c3ccc(-c4ccccc4)cc3)cc2)cc1 [Example 10B, N^2-(biphenyl-4-ylcarbonyl)-N^1-[2-(4′-methoxybiphenyl-4-yl)ethyl]-L-α-glutamine] | 150 nM | –
CCOc1ccccc1-c1ccc(CCNC(=O)[C@H](CCC(=O)O)NC(=O)c2ccc(-c3ccccc3)cc2)cc1 [Example 10E, N^2-(biphenyl-4-ylcarbonyl)-N^1-[2-(2′-ethoxybiphenyl-4-yl)ethyl]-L-α-glutamine] | 370 nM | –
O=C(O)CC[C@H](NC(=O)c1ccc(-c2ccccc2)cc1)C(=O)NCCc1ccc(-c2ccncc2)cc1 [Example 10H, N^2-(biphenyl-4-ylcarbonyl)-N^1-[2-(4-pyridin-4-ylphenyl)ethyl]-L-α-glutamine] | 300 nM | –
O=C(O)CC[C@H](NC(=O)c1ccc(-c2ccccc2)cc1)C(=O)NCCc1cccc(-c2ccccn2)c1 [Example 10I, N^2-(biphenyl-4-ylcarbonyl)-N^1-[2-(3-pyridin-2-ylphenyl)ethyl]-L-α-glutamine] | 320 nM | –
O=Cc1ccc(-c2cccc(CCNC(=O)[C@H](CCC(=O)O)NC(=O)c3ccc(-c4ccccc4)cc3)c2)cc1 [Example 10J, N^2-(biphenyl-4-ylcarbonyl)-N^1-[2-(4′-formylbiphenyl-3-yl)ethyl]-L-α-glutamine] | 260 nM | –
O=C(O)CC[C@H](NC(=O)c1ccc(-c2ccccc2)cc1)C(=O)NCc1cccc(-c2ccc(C(F)(F)F)cc2)c1 [Example 10O, N^2-(biphenyl-4-ylcarbonyl)-N^1-{[4′-(trifluoromethyl)biphenyl-3-yl]methyl}-L-α-glutamine] | 470 nM | –
C#Cc1ccc(-c2cccc(CNC(=O)[C@H](CCC(=O)O)NC(=O)c3ccc(-c4ccccc4)cc3)c2)cc1 [Example 10P, N^2-(biphenyl-4-ylcarbonyl)-N^1-[(4′-ethynylbiphenyl-3-yl)methyl]-L-α-glutamine] | 700 nM | –
CCOc1ccc(-c2ccc(C(=O)N[C@@H](CCC(=O)O)C(=O)NCc3ccccc3)cc2)cc1 [Example 14, N^1-benzyl-N^2-[(4′-ethoxy-1,1′-biphenyl-4-yl)carbonyl]-L-α-glutamine] | – | Agg1 % @ concentration (@ 16,700 (nM)): 60% @
CCCCOc1ccc(-c2ccc(C(=O)N[C@@H](CCC(=O)O)C(=O)NCc3ccccc3)cc2)cc1 [Example 15B, N^1-benzyl-N^2-[(4′-butoxy-1,1′-biphenyl-4-yl)carbonyl]-L-α-glutamine] | – | Agg1 % @ concentration (@ 7,500 (nM)): 67% @
O=C(O)CC[C@H](NC(=O)c1ccc(-c2ccc(OCC3CCC3)cc2)cc1)C(=O)NCc1ccccc1 [Example 15C, N^1-benzyl-N^2-{[4′-(cyclobutylmethoxy)-1,1′-biphenyl-4-yl]carbonyl}-L-α-glutamine] | – | Agg1 % @ concentration (@ 7,500 (nM)): 50% @
O=C(O)CC[C@H](NC(=O)c1ccc(-c2ccc(OCC3CCCCC3)cc2)cc1)C(=O)NCc1ccccc1 [Example 15D, N^1-benzyl-N^2-{[4′-(cyclohexylmethoxy)-1,1′-biphenyl-4-yl]carbonyl}-L-α-glutamine] | – | Agg1 % @ concentration (@ 7,500 (nM)): 86% @
C=CCOc1ccc(-c2ccc(C(=O)N[C@@H](CCC(=O)O)C(=O)NCc3ccccc3)cc2)cc1 [Example 15E, N^2-{[4′-(allyloxy)-1,1′-biphenyl-4-yl]carbonyl}-N^1-benzyl-L-α-glutamine] | 3500 nM | –

Further lines, with some results ahead:

IC50 | SMILES | also measured
35000 nM | C#Cc1ccc(-c2ccc(C(=O)N[C@@H](CCC(=O)O)C(=O)NCc3ccccc3)cc2)cc1 [Example 12B, N^1-benzyl-N^2-[(4′-ethynyl-1,1′-biphenyl-4-yl)carbonyl]-L-α-glutamine] | –
25000 nM | O=C(O)CC[C@H](NC(=O)c1ccc(-c2cccnc2)cc1)C(=O)NCc1ccccc1 [Example 12C, N^1-benzyl-N^2-(4-pyridin-3-ylbenzoyl)-L-α-glutamine] | –
> 100000 nM | O=C(O)CC[C@H](NC(=O)c1ccc(-c2nccs2)cc1)C(=O)NCc1ccccc1 [Example 12D, N^1-benzyl-N^2-[4-(1,3-thiazol-2-yl)benzoyl]-L-α-glutamine] | –
1800 nM | O=C(O)CC[C@H](NC(=O)c1ccc(-c2ccccn2)cc1)C(=O)NCc1ccccc1 [Example 12E, N^1-benzyl-N^2-(4-pyridin-2-ylbenzoyl)-L-α-glutamine] | –
~50000 nM | Cc1ccc(C)c(-c2ccc(C(=O)N[C@@H](CCC(=O)O)C(=O)NCc3ccccc3)cc2)c1 [Example 13B, N^1-benzyl-N^2-[(2′,5′-dimethyl-1,1′-biphenyl-4-yl)carbonyl]-L-α-glutamine] | –
9600 nM | CCc1ccc(-c2ccc(C(=O)N[C@@H](CCC(=O)O)C(=O)NCc3ccccc3)cc2)cc1 [Example 13C, N^1-benzyl-N^2-[(4′-ethyl-1,1′-biphenyl-4-yl)carbonyl]-L-α-glutamine] | –
~25000 nM | CCOc1ccccc1-c1ccc(C(=O)N[C@@H](CCC(=O)O)C(=O)NCc2ccccc2)cc1 [Example 13E, N^1-benzyl-N^2-[(2′-ethoxy-1,1′-biphenyl-4-yl)carbonyl]-L-α-glutamine] | –
~200 nM | Cc1cccc(C)c1-c1ccc(C(=O)N[C@@H](CCC(=O)O)C(=O)NCc2ccccc2)cc1 [Example 13F, N^1-benzyl-N^2-[(2′,6′-dimethyl-1,1′-biphenyl-4-yl)carbonyl]-L-α-glutamine] | –
~2500 nM | C=Cc1ccc(-c2ccc(C(=O)N[C@@H](CCC(=O)O)C(=O)NCc3ccccc3)cc2)cc1 [Example 13G, N^1-benzyl-N^2-[(4′-vinyl-1,1′-biphenyl-4-yl)carbonyl]-L-α-glutamine] | –
> 22000 nM | CCCOc1ccc(-c2ccc(C(=O)N[C@@H](CCC(=O)O)C(=O)NCc3ccccc3)cc2)cc1 [Example 15A, N^1-benzyl-N^2-[(4′-propoxy-1,1′-biphenyl-4-yl)carbonyl]-L-α-glutamine] | –
600 nM | COc1cccc(COc2ccc(-c3ccc(C(=O)N[C@@H](CCC(=O)O)C(=O)NCc4ccccc4)cc3)cc2)c1 [Example 15F, N^1-benzyl-N^2-({4′-[(3-methoxybenzyl)oxy]-1,1′-biphenyl-4-yl}carbonyl)-L-α-glutamine] | –
2200 nM | COc1cc(COc2ccc(-c3ccc(C(=O)N[C@@H](CCC(=O)O)C(=O)NCc4ccccc4)cc3)cc2)cc(OC)c1 [Example 15G, N^1-benzyl-N^2-({4′-[(3,5-dimethoxybenzyl)oxy]-1,1′-biphenyl-4-yl}carbonyl)-L-α-glutamine] | –
200 nM | O=C(O)CC[C@H](NC(=O)c1ccc(-c2ccc(OCc3ccc4ccccc4c3)cc2)cc1)C(=O)NCc1ccccc1 [Example 15H, N^1-benzyl-N^2-{[4′-(2-naphthylmethoxy)-1,1′-biphenyl-4-yl]carbonyl}-L-α-glutamine] | –
